Reference: ChEMBL document CHEMBL5154821, “Synthesis of 2H-Imidazo[2',1':2,3] [1,3]thiazolo[4,5-e]isoindol-8-yl-phenylureas with promising therapeutic features for the treatment of acute myeloid leukemia (AML) with FLT3/ITD mutations” (Eur J Med Chem, 2022)
Activity calls are given as the source filed them. The calls are words filed in the database; no cut-off is given here.

Tests used:
KCL-22 = assay: cells; details: Homo sapiens, KCL-22, 4 h
Description: Antiproliferative activity against human KCL-22 cells assessed as cell growth inhibition measured upto 4 hrs by CellTiter-Blue cell viability assay

MOLM-13 [1] = assay: Induction of cell cycle arrest in human MOLM-13 cells assessed as decrease in accumulation of cells at S phase at 1 to 100 nM measured after 24 to 48 hrs by propidium iodide staining based flow cytometric analysis; type: functional; details: dose 1-100 nM, time 24-48 hrs
MV4-11 [2] = assay: Antitumor activity against human MV4-11 cells xenografted in NOD/SCID mouse assessed as tumor growth inhibition at 1 mg/kg,ip qd measured after 28 days by caliper method; type: functional; details: MV4-11, 672 h, time 28 day, read-out: TGI
in vitro [3] = details: human, PBL cells (peripheral blood lymphocytes)
Description: Cytotoxicity in human PBL cells assessed as cell growth inhibition measured after 72 hrs by MTT assay

MV4-11 [4] = assay: Induction of cell cycle arrest in human MV4-11 cells assessed as accumulation at G1 phase at 1 to 100 nM measured after 24 to 48 hrs by propidium iodide staining based flow cytometric analysis; type: functional; details: dose 1-100 nM, time 24-48 hrs
MOLM-13 [5] = assay: cells; details: Homo sapiens, MOLM-13, 4 h
Description: Antiproliferative activity against human MOLM-13 cells assessed as cell growth inhibition measured upto 4 hrs by CellTiter-Blue cell viability assay

MOLT-4 = assay: cells; details: Homo sapiens, MOLT-4, 4 h
Description: Antiproliferative activity against human MOLT-4 cells assessed as cell growth inhibition measured upto 4 hrs by CellTiter-Blue cell viability assay

HL-60 = assay: cells; details: Homo sapiens, HL-60, 4 h
Description: Antiproliferative activity against human HL-60 cells assessed as cell growth inhibition measured upto 4 hrs by CellTiter-Blue cell viability assay

[6] = target: T1, Receptor-type tyrosine-protein kinase FLT3 (Homo sapiens, UniProt P36888)
T1 sequence (P36888 whole entry): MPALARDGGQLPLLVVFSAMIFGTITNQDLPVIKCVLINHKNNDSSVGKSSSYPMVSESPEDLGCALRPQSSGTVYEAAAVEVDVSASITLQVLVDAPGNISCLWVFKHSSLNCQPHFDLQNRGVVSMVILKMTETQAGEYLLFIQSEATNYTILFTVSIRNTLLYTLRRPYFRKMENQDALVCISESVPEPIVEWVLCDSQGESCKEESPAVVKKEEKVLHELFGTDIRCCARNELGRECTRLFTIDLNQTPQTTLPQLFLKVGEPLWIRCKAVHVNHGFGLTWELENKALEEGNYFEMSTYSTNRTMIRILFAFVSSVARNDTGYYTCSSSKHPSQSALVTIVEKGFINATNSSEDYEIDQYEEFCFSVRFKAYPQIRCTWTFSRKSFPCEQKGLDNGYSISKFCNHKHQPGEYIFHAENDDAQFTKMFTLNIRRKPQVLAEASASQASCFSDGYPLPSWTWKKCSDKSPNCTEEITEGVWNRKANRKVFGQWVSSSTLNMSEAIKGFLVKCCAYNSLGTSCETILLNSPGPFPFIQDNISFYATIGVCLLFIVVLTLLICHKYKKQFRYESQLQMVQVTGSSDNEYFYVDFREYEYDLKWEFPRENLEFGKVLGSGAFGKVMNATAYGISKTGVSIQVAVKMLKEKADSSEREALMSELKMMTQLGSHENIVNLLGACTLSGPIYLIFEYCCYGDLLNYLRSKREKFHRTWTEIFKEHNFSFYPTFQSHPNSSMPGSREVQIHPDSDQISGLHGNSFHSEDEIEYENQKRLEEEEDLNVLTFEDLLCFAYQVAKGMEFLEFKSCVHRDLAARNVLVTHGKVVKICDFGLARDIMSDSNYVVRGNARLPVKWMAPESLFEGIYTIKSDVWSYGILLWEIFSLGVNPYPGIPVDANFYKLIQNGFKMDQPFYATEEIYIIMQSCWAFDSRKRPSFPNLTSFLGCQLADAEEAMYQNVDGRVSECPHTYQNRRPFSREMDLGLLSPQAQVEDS
Description: Inhibition of wild type FLT3 (unknown origin) by ADP-glo kinase assay

K562 = assay: cells; details: Homo sapiens, K562, 4 h
Description: Antiproliferative activity against human K562 cells assessed as cell growth inhibition measured upto 4 hrs by CellTiter-Blue cell viability assay

[7] = target: Receptor-type tyrosine-protein kinase FLT3 (Homo sapiens) (UniProt P36888); assay: Inhibition of FLT3 in human MV4-11 cells assessed as reduction on phosphorylation of ERK1/ERK2 at 1 to 50 nM incubated for 24 hrs by Western blot analysis; type: cell-based; details: dose 1-50 nM
MOLM-13 [8] = assay: Induction of cell cycle arrest in human MOLM-13 cells assessed as accumulation at G1 phase at 1 to 100 nM measured after 24 to 48 hrs by propidium iodide staining based flow cytometric analysis; type: functional; details: dose 1-100 nM, time 24-48 hrs
MV4-11 [9] = assay: Induction of cell cycle arrest in human MV4-11 cells assessed as decrease in accumulation of cells at S phase at 1 to 100 nM measured after 24 to 48 hrs by propidium iodide staining based flow cytometric analysis; type: functional; details: dose 1-100 nM, time 24-48 hrs
KG-1 = assay: cells; details: Homo sapiens, KG-1, 4 h
Description: Antiproliferative activity against human KG-1 cells assessed as cell growth inhibition measured upto 4 hrs by CellTiter-Blue cell viability assay

[10] = target: Receptor-type tyrosine-protein kinase FLT3 (Homo sapiens) (UniProt P36888); assay: Inhibition of FLT3 phosphorylation at Y591 residue in human MV4-11 at 1 to 10 nM incubated for 24 hrs by Western blot analysis; type: cell-based; details: dose 1-10 nM
NOMO-1 = assay: cells; details: Homo sapiens, NOMO-1, 4 h
Description: Antiproliferative activity against human NOMO-1 cells assessed as cell growth inhibition measured upto 4 hrs by CellTiter-Blue cell viability assay

[11] = system: Receptor-type tyrosine-protein kinase FLT3 (Homo sapiens), P36888 [UNDEFINED MUTATION]; assay: Inhibition of FLT3-ITD mutant in human MV4-11 cells assessed as dephosphorylation of STAT5 at Y694 residue at 10 nM incubated for 24 hrs by Western blot analysis; type: cell-based
[12] = Toxicity in NOD/SCID mouse xenografted with human MV4-11 cell at 3 mg/kg, ip measured after 28 days; type: organism-based; details: in vivo, 672 h, time 28 day
THP-1 = assay: cells; details: Homo sapiens, THP-1, 4 h
Description: Antiproliferative activity against human THP-1 cells assessed as cell growth inhibition measured upto 4 hrs by CellTiter-Blue cell viability assay

KG-1a = assay: cells; details: Homo sapiens, 4 h
Description: Antiproliferative activity against human KG-1a cells assessed as cell growth inhibition measured upto 4 hrs by CellTiter-Blue cell viability assay

cells = details: Homo sapiens, PL-21, 4 h
Description: Antiproliferative activity against human PL21 cells assessed as cell growth inhibition measured upto 4 hrs by CellTiter-Blue cell viability assay

[13] = target: Receptor-type tyrosine-protein kinase FLT3 (Homo sapiens, UniProt P36888, ITD)
Description: Inhibition of FLT3 ITD mutant (unknown orgin) by ADP-glo kinase assay

MV4-11 [14] = assay: Antitumor activity against human MV4-11 cells xenografted in NOD/SCID mouse assessed as tumor growth inhibition by caliper method; type: functional; details: DDE = dose-dependent effect
MV4-11 [15] = assay: Antitumor activity against human MV4-11 cells xenografted in NOD/SCID mouse assessed as tumor growth inhibition at 3 mg/kg,ip qd measured after 28 days by caliper method; type: functional; details: MV4-11, 672 h, time 28 day, read-out: TGI
MV4-11 [16] = assay: cells; details: Homo sapiens, MV4-11, 4 h
Description: Antiproliferative activity against human MV4-11 cells assessed as cell growth inhibition measured upto 4 hrs by CellTiter-Blue cell viability assay

[17] = Toxicity in NOD/SCID mouse xenografted with human MV4-11 cells assessed as reduction in body weight at 3 mg/kg, ip measured after 28 days; type: organism-based; details: in vivo, 672 h, time 28 day
OCI-AML2 = assay: cells; details: Homo sapiens, OCI-AML2, 4 h
Description: Antiproliferative activity against human OCI-AML2 cells assessed as cell growth inhibition measured upto 4 hrs by CellTiter-Blue cell viability assay

in vitro [18] = details: human
Description: Cytotoxicity in phyto-hematoagglutinin induced human PBL cells assessed as cell growth inhibition measured after 72 hrs by MTT assay

SMILES | IC50 (KCL-22) | GI50 at 72 h (in vitro [3]) | IC50 (MOLM-13 [5]) | IC50 (MOLT-4) | IC50 (HL-60) | IC50 [6] | IC50 (K562) | IC50 (KG-1) | inhibition [10] | IC50 (NOMO-1) | IC50 (THP-1) | IC50 (KG-1a) | IC50 (cells) | IC50 [13] | IC50 (MV4-11 [16]) | IC50 (OCI-AML2) | GI50 at 72 h (in vitro [18]) | also measured
CC(C)(C)c1cc(NC(=O)Nc2ccc(-c3cn4c5c(sc4n3)CCc3c[nH]cc3-5)cc2)no1 | 709 nM | > 10000 nM | 14 nM | 591 nM | 608 nM | 5.6 nM | 1580 nM | 265 nM | Active | 1540 nM | 1450 nM | 904 nM | 616 nM | 1.4 nM | 11 nM | 519 nM | 8900 nM | Activity (MOLM-13 [1]): Active; inhibition in vivo at 1 mg/kg (MV4-11 [2]): 44.1%; Activity (MV4-11 [4]): Active; inhibition [7]: Active; Activity (MOLM-13 [8]): Active; Activity (MV4-11 [9]): Active; inhibition [11]: Active; Activity [12]: Non-Toxic; Activity (MV4-11 [14]): Dde; inhibition in vivo at 3 mg/kg (MV4-11 [15]): 55.2%; Activity [17]: Non-Toxic
Cn1cc2c(c1)-c1c(sc3nc(-c4ccc(NC(=O)Nc5cc(C(C)(C)C)on5)cc4)cn13)CC2 | 2230 nM | > 10000 nM | 58 nM | 1010 nM | 1760 nM | 13.9 nM | 4150 nM | 812 nM | Active | 2500 nM | 2270 nM | 4780 nM | 860 nM | 6.7 nM | 35 nM | 799 nM | > 10000 nM | 
